Patent US20250145606A1 (Arcus Biosciences, Inc., priority 2023, published 2025)

Assays:
[1] = target: PDGFRα (Homo sapiens (Human), UniProt P16234); experiment: Inhibition of PDGFRα kinase activity (HTRF KinEASE-TK); conditions: biochemical
Method in brief: (§1)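 Human kinases were preincubated 1 h at rt with a 22-point 1:2 compound titration, then run 120 min at rt with biotinylated TK peptide and ATP (2× mix: c-Kit 16 μM, PDGFRα 1 μM, PDGFRβ 40 μM, CSF1R 20 μM). Phosphopeptide was read by HTRF TR-FRET (665/620 nm), and IC50s came from 4-parameter fits.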

[2] = target: c-Kit (Homo sapiens (Human), UniProt P10721); experiment: Inhibition of c-Kit kinase activity (HTRF KinEASE-TK); type: biochemical; conditions: biochemical
Method in brief: as §1

[3] = target: CSF1R (Homo sapiens (Human), UniProt P07333); experiment: Inhibition of CSF1R kinase activity (HTRF KinEASE-TK); conditions: biochemical
Method in brief: as §1

[4] = target: PDGFRβ (Homo sapiens (Human), UniProt P09619); experiment: Inhibition of PDGFRβ kinase activity (HTRF KinEASE-TK); conditions: biochemical
Method in brief: as §1

[5] = target: FLT3 (Homo sapiens (Human), UniProt P36888); experiment: Inhibition of FLT3 kinase activity (HTRF KinEASE-TK); type: biochemical; conditions: biochemical
Experimental: Inhibition of c-Kit, PDGFRα, PDGFRβ, CSFIR and FLT3 Kinase Activity
Compounds were evaluated to determine the potency with which they inhibit the kinase activity of the following panel of tyrosine kinases: c-Kit (SignalChem, Product #: K06-11BG), PDGFRα (SignalChem, Product #: P12-18G), PDGFRβ (SignalChem, Product #: P13-11G), CSFIR (SignalChem, Product #: C74-11G) and FLT3 (Invitrogen, Product #: PR4666C). Activity was determined as a function of phosphorylated biotinylated TK peptide generated by the transfer of phosphate from ATP as measured by the use of the HTRF KinEASE-TK assay kit (Cisbio, Product #: 62TKOPEJ). Levels of phosphorylated biotinylated TK peptide (Part 61TKOBLC of KinEASE assay kit) are quantified by its capture by phosphor-TK-Antibody-Cryptate (Part of KinEASE assay kit) and XL665-labeled Streptavidin (Part 610SAXLG of KinEASE assay kit) followed by measurement of Time-Resolved Fluorescence Resonance Energy Transfer (TR-FRET) signal. On the day of the assay, compounds were solubilized in DMSO and dispensed into a 384-well white Opti-plate (PerkinElmer, catalog #6007290) to generate a 22 point 1:2 titration. Enzyme solution was prepared for each of the tyrosine kinases in 50 mM HEPES, pH 7.4, 5 mM MgCl2 for c-Kit or 10 mM MgCl2 for FLT3, CSFIR, PDGFRa and PDGFRβ, 2 mM MnCl2, 0.01% Brij-35 and 0.01% BSA. Working enzyme concentrations were prepared for c-Kit at 2 nM (2×), PDGFRa and PDGFRß at 10 nM (2×), CSFIR at 2 nM (2×) and FLT3 at 0.4 nM (2×). Five microliters of enzyme dilution of each tyrosine kinase were added to their respective 384-well white Opti-plate pre-dispensed with compound and allowed to incubate for 1 h at rt. Utilizing the same enzyme buffer recipe, 2x substrate mixes were prepared for each enzyme as follows: For c-Kit, 1.6 μM (2×) TK substrate and 16 μM (2×) ATP (Promega, catalog #V915). For PDGFRα, 3.2 μM TK substrate and 1 μM ATP. For PDGFRβ, 3.2 μM TK substrate and 40 μM ATP. For CSFIR, […] TK substrate and 20 μM ATP. For FLT3, 3.2 μM TK substrate and 100 μM ATP. Reactions were initiated by addition of 5 μL of the respective 2x substrate mix to each well of the plates containing the respective tyrosine kinase enzymes and were allowed to proceed for 120 minutes at rt, except for FLT3, the reaction time is 45 min. Following the reaction, 10 μL of detection mix consisting of 0.2 μM (2×) of Streptavidin-XL665 and 2 μM (2×) of TK-Antibody-Cryptate prepared in detection buffer (Part 62SDBRDF of KinEASE assay kit) was added and then allowed to incubate for 60 min. The TR-FRET signal was quantified by measuring the ratio of emission at 665 nm to 620 nm after excitation at 320 nm by reading on a PerkinElmer Envision multimode reader. Compound potencies (IC50 values) were determined using a standard 4-parameter non-linear regression fit.

[6] = tested on: Phospho-KIT (Y703) in M07e cells; experiment: Phospho-KIT (Y703) cellular assay in M07e cells; type: cell-based; conditions: M-07e; Phospho-KIT (Y703), M07e cells; read-out: M07e Cell IC50
Method in brief: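 Serum-starved M07e cells preincubated 50 min at 37° C with 11-point half-log compound titration, then stimulated 10 min with SCF at 90.9 ng/mL final. Fixed, permeabilized cells stained for phospho-KIT Y703 and read by flow cytometry (live-gated geometric mean); IC50 by 4-parameter fit normalized to DMSO and positive control.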

Sequence of PDGFRβ (P09619 33-1106): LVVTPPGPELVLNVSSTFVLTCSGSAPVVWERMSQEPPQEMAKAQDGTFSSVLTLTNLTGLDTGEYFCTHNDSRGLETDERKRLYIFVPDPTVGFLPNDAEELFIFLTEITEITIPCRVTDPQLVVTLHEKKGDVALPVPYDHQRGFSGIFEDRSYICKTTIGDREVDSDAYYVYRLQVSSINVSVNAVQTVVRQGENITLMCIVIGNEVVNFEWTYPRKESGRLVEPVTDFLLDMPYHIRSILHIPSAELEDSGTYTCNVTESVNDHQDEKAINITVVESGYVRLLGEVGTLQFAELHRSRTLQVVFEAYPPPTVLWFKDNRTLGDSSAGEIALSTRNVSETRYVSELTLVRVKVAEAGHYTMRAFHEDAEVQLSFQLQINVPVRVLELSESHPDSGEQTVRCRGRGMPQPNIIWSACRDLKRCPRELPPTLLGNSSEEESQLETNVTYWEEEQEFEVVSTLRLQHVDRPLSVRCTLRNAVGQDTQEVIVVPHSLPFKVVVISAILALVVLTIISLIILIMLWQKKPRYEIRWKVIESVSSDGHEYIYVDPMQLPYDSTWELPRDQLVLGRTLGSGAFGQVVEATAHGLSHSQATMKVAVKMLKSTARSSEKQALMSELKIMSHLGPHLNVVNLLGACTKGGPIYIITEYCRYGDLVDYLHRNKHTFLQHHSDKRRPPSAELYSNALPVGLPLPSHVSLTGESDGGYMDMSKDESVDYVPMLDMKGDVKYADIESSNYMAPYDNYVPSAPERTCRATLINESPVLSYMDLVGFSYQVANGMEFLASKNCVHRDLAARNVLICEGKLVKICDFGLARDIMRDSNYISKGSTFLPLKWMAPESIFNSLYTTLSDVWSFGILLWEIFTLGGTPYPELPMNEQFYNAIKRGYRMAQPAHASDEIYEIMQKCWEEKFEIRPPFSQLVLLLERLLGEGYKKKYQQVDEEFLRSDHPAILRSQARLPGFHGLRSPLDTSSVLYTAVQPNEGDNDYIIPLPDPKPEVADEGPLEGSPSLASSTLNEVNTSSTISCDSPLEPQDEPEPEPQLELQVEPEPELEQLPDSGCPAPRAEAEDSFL
Sequence of PDGFRα (P16234 24-1089): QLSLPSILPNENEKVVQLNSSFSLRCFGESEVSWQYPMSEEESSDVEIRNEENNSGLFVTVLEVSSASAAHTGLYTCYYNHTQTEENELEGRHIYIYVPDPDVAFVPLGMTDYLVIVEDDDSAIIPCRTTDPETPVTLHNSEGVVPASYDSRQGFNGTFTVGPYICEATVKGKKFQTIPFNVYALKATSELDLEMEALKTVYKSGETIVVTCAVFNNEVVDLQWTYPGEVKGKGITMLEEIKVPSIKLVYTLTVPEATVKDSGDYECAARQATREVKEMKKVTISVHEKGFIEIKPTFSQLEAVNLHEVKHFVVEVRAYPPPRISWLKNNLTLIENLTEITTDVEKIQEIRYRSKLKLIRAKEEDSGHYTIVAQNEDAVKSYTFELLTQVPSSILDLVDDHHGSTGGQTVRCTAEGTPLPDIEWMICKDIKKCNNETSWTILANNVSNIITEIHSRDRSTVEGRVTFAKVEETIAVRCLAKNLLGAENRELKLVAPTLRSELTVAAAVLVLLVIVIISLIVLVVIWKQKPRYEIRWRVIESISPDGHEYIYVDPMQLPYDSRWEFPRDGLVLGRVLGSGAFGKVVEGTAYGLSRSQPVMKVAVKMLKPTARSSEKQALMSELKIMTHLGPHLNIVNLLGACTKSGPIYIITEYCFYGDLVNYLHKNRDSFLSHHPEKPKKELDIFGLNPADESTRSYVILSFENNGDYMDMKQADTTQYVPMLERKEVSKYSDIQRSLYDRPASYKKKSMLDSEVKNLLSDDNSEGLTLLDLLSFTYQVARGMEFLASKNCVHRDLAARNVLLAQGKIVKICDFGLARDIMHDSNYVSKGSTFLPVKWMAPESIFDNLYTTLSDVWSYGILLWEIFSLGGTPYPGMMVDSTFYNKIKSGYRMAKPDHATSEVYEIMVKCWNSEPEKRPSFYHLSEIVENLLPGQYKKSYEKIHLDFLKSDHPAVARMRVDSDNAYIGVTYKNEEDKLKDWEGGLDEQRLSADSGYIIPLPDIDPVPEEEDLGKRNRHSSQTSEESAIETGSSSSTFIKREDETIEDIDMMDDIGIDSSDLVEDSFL
Sequence of CSF1R (P07333 20-972): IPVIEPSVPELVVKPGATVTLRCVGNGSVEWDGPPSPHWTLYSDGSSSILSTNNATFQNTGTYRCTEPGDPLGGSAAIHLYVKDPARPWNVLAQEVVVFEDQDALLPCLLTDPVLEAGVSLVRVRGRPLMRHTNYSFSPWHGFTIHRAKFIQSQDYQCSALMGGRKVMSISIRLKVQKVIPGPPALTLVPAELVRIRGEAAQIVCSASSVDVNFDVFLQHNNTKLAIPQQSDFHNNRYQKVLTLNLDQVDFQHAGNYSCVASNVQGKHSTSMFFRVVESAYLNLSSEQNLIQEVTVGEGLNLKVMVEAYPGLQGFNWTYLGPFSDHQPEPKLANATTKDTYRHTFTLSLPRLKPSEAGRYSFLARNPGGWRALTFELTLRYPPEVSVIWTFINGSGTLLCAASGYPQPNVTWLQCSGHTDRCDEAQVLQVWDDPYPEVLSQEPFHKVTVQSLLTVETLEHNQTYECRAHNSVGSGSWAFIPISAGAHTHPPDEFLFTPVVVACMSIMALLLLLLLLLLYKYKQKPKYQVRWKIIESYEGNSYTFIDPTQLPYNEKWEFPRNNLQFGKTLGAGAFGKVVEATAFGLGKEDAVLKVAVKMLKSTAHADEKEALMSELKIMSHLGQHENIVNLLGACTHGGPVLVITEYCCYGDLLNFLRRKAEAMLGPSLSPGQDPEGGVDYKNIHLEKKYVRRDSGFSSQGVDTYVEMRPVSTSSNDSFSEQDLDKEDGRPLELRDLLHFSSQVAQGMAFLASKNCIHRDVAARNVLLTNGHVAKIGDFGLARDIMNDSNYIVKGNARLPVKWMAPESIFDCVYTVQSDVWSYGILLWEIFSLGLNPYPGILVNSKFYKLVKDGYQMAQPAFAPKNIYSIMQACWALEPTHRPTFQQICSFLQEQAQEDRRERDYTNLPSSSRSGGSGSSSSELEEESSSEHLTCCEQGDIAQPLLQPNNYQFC
Sequence of c-Kit (P10721 26-976): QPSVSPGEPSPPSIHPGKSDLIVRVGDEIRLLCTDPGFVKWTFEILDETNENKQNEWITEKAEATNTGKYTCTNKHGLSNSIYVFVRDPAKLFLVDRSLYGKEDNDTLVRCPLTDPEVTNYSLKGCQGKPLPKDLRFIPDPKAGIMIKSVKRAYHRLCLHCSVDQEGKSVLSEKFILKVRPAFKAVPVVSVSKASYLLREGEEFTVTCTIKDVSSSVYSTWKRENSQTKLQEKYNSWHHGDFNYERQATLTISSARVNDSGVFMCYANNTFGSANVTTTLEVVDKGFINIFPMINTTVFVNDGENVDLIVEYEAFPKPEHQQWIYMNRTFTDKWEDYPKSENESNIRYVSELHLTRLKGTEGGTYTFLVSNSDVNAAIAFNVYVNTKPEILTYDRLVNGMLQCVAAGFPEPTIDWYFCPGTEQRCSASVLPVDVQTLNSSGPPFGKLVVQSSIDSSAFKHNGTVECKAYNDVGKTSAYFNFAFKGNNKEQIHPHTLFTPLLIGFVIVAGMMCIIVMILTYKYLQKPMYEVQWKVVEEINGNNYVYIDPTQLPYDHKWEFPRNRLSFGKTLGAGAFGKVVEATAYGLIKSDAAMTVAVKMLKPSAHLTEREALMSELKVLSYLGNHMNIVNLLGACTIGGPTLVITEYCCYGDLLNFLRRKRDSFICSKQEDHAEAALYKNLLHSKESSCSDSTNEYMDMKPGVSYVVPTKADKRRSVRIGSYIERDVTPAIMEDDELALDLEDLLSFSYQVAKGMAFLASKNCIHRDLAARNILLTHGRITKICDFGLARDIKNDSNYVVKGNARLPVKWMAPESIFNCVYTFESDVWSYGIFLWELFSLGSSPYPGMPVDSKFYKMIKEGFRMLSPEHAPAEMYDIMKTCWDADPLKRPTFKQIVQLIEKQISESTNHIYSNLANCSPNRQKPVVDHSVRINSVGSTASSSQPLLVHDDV
Sequence of FLT3 (P36888 27-993): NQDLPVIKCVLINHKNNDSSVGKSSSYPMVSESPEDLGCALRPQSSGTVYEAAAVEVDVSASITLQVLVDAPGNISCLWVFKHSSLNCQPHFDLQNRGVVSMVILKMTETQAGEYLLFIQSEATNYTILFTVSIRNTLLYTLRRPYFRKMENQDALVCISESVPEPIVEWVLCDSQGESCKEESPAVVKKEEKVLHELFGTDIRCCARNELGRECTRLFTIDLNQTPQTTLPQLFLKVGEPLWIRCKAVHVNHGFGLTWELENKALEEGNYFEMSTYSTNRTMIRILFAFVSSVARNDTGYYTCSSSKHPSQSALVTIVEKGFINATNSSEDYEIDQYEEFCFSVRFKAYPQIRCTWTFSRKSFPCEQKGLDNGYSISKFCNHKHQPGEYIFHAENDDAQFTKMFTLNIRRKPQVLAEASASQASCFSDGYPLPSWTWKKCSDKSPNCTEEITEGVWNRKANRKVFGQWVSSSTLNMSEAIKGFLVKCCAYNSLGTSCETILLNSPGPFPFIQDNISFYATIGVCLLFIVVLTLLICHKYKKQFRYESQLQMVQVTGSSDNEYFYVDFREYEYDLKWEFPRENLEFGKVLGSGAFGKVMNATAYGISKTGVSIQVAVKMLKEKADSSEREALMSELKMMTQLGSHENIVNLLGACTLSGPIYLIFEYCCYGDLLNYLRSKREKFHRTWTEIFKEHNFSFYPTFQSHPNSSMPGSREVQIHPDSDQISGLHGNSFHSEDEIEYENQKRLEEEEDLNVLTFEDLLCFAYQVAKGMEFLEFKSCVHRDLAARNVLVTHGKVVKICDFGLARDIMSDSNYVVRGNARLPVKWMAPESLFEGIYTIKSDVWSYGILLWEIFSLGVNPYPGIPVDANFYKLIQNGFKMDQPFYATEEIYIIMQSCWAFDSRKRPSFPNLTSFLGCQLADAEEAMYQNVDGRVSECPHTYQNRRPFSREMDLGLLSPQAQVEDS

Row | Structure (SMILES) | IC50 ([1]; HTRF KinEASE-TK) [nM] | IC50 ([2]; HTRF KinEASE-TK) [nM] | IC50 ([3]; HTRF KinEASE-TK) [nM] | IC50 ([4]; HTRF KinEASE-TK) [nM] | IC50 ([5]; HTRF KinEASE-TK) [nM] | IC50 [6] [nM] | IC50 [1] [nM] | IC50 [2] [nM] | IC50 [3] [nM] | IC50 [4] [nM] | IC50 [5] [nM]
1 | Cc1cc(F)c(C(=O)Nc2ccc(OC3CC3)cn2)cc1NC(=O)c1cnc(NC(=O)N2CCC2)s1 [Example 6, 2-(Azetidine-1-carbonylamino)-N-[5-[(5-cyclopropyloxypyridin-2-yl)carbamoyl]-4-fluoro-2-methylphenyl]-1,3-thiazole-5-carboxamide] | – | – | – | – | – | – | < 100 | < 100 | < 100 | < 100 | > 1000
2 | Cc1ncc(C(=O)Nc2cc(C(=O)Nc3ncc(C4CC4)cn3)c(F)cc2C)s1 [Example 44, NV-[5-[(5-cyclopropylpyrimidin-2-yl)carbamoyl]-4-fluoro-2-methylphenyl]-2-methyl-1,3-thiazole-5-carboxamide] | > 1000 | < 100 | > 1000 | > 1000 | > 1000 | – | – | – | – | – | –
3 | Cc1cc(F)c(C(=O)Nc2ccc(COC(F)F)cn2)cc1NC(=O)c1cnc(N)s1 [Example 254, 2-Amino-N-[5-[[5-(difluoromethoxymethyl)pyridin-2-yl]carbamoyl]-4-fluoro-2-methylphenyl]-1,3-thiazole-5-carboxamide] | > 1000 | < 100 | 100 to 1000 | < 100 | – | < 100 | – | – | – | – | –
4 | Cc1cc(F)c(C(=O)Nc2ccc(F)cc2)cc1NC(=O)c1cnc(N)s1 [Example 233, 2-Amino-N-[4-fluoro-5-[(4-fluorophenyl)carbamoyl]-2-methylphenyl]-1,3-thiazole-5-carboxamide] | > 1000 | < 100 | > 1000 | > 1000 | – | < 100 | – | – | – | – | –
5 | COC[C@H]1CCCN1c1cnc(NC(=O)c2cc(NC(=O)c3cnc(C)s3)c(C)cc2F)cn1 [Example 90, N-(5-{N-5-[(R)-2-(methoxymethyl)-1-pyrrolidinyl]-2-pyrazinylcarbamoyl}-4-fluoro-2-tolyl)-2-methyl-1,3-thiazole-5-carboxamide] | > 1000 | < 100 | > 1000 | > 1000 | – | 100 to 1000 | – | – | – | – | –
6 | Cc1ncc(C(=O)Nc2cc(C(=O)Nc3ccc(OC(F)(F)F)cn3)c(F)cc2C)s1 [Example 39, N-[4-fluoro-2-methyl-5-[[5-(trifluoromethoxy)pyridin-2-yl]carbamoyl]phenyl]-2-methyl-1,3-thiazole-5-carboxamide] | > 1000 | < 100 | > 1000 | > 1000 | – | < 100 | – | – | – | – | –
7 | Cc1ncc(C(=O)Nc2cc(C(=O)Nc3ccc(OCC(F)F)cn3)c(F)cc2C)s1 [Example 36, N-[5-[[5-(2,2-difluoroethoxy)pyridin-2-yl]carbamoyl]-4-fluoro-2-methylphenyl]-2-methyl-1,3-thiazole-5-carboxamide] | > 1000 | < 100 | > 1000 | > 1000 | – | < 100 | – | – | – | – | –
8 | Cc1ncc(C(=O)Nc2cc(C(=O)Nc3cnc(N4CCC[C@H]4C(F)(F)F)cn3)c(F)cc2C)s1 [Example 95, N-[4-fluoro-2-methyl-5-[[5-[(2S)-2-(trifluoromethyl)pyrrolidin-1-yl]pyrazin-2-yl]carbamoyl]phenyl]-2-methyl-1,3-thiazole-5-carboxamide] | > 1000 | < 100 | > 1000 | > 1000 | – | < 100 | – | – | – | – | –
9 | Cc1ncc(C(=O)Nc2cc(C(=O)NCc3ccccc3F)c(F)cc2C)s1 [Example 51, N-(4-fluoro-5-((2-fluorobenzyl)carbamoyl)-2-methylphenyl)-2-methylthiazole-5-carboxamide] | > 1000 | 100 to 1000 | > 1000 | > 1000 | – | < 100 | – | – | – | – | –
10 | COC1CN(c2cnc(NC(=O)c3cc(NC(=O)c4cnc(C)s4)c(C)cc3F)cn2)C1 [Example 73, N-(4-fluoro-5-((5-(3-methoxyazetidin-1-yl)pyrazin-2-yl)carbamoyl)-2-methylphenyl)-2-methylthiazole-5-carboxamide] | > 1000 | < 100 | > 1000 | > 1000 | – | < 100 | – | – | – | – | –

The next lines start with results.

Row | IC50 ([1]; HTRF KinEASE-TK) [nM] | IC50 ([2]; HTRF KinEASE-TK) [nM] | IC50 ([3]; HTRF KinEASE-TK) [nM] | IC50 ([4]; HTRF KinEASE-TK) [nM] | IC50 ([5]; HTRF KinEASE-TK) [nM] | IC50 [6] [nM] | Structure (SMILES) | IC50 [1] [nM] | IC50 [2] [nM] | IC50 [3] [nM] | IC50 [4] [nM] | IC50 [5] [nM]
11 | > 1000 | < 100 | > 1000 | 100 to 1000 | > 1000 | – | COC(c1ccc(NC(=O)c2cc(NC(=O)c3cnc(N)s3)c(C)cc2F)nc1)C1CC1 (stereo not drawn) [Example 197, 2-Amino-N-[5-[[5-[cyclopropyl(methoxy)methyl]pyridin-2-yl]carbamoyl]-4-fluoro-2-methylphenyl]-1,3-thiazole-5-carboxamide] | – | – | – | – | –
12 | > 1000 | < 100 | 100 to 1000 | 100 to 1000 | > 1000 | – | Nc1ncc(C(=O)Nc2cc(C(=O)Nc3ccc(OC4CC4)cn3)c(F)cc2Br)s1 [Example 236, 2-Amino-N-[2-bromo-5-[(5-cyclopropyloxypyridin-2-yl)carbamoyl]-4-fluorophenyl]-1,3-thiazole-5-carboxamide] | – | – | – | – | –
13 | 100 to 1000 | < 100 | > 1000 | > 1000 | > 1000 | – | Cc1cc(F)c(C(=O)N[C@@H]2C[C@@H]2F)cc1NC(=O)c1cnc(N)s1 [Example 137] | – | – | – | – | –
14 | > 1000 | < 100 | > 1000 | > 1000 | > 1000 | – | Cc1cc(F)c(C(=O)N[C@H]2CCOC2)cc1NC(=O)c1cnc(NC(=O)N2CCOCC2)s1 [Example 105, N-[5-[[4-fluoro-2-methyl-5-[[(3S)-oxolan-3-yl]carbamoyl]phenyl]carbamoyl]-1,3-thiazol-2-yl]morpholine-4-carboxamide] | – | – | – | – | –
15 | < 100 | < 100 | < 100 | < 100 | > 1000 | – | Cc1cc(F)c(C(=O)Nc2ccc(OC(F)F)cc2)cc1NC(=O)c1cnc(N)s1 [Example 227, 2-Amino-N-[5-[[4-(difluoromethoxy)phenyl]carbamoyl]-4-fluoro-2-methylphenyl]-1,3-thiazole-5-carboxamide] | – | – | – | – | –
16 | > 1000 | < 100 | 100 to 1000 | 100 to 1000 | > 1000 | – | Cc1ncc(NC(=O)c2cc(NC(=O)c3cnc(N)s3)c(C)cc2F)s1 [Example 166, 2-Amino-N-[4-fluoro-2-methyl-5-[(2-methyl-1,3-thiazol-5-yl)carbamoyl]phenyl]-1,3-thiazole-5-carboxamide] | – | – | – | – | –
17 | 100 to 1000 | < 100 | 100 to 1000 | 100 to 1000 | > 1000 | – | Cc1cc(F)c(C(=O)Nc2cnn(C3CC3)c2)cc1NC(=O)c1cnc(N)s1 [Example 161, 2-Amino-N-[5-[(1-cyclopropylpyrazol-4-yl)carbamoyl]-4-fluoro-2-methylphenyl]-1,3-thiazole-5-carboxamide] | – | – | – | – | –
18 | > 1000 | < 100 | > 1000 | > 1000 | > 1000 | – | Cc1cc(F)c(C(=O)Nc2ccn(C)n2)cc1NC(=O)c1cnc(N)s1 [Example 163, 2-Amino-N-[4-fluoro-2-methyl-5-[(1-methylpyrazol-3-yl)carbamoyl]phenyl]-1,3-thiazole-5-carboxamide] | – | – | – | – | –
